According to US11198761B2, “Biodegradable polyionenes” (AGENCY FOR SCIENCE, TECHNOLOGY AND RESEARCH, priority 2017, dated 2021):

Experiments:
[1] = tested on: rat red blood cells (rRBCs); assay: Hemolysis assay; format: cell-based; details: Gemini-surfactant series S; 1 hour, 37° C.
Experimental: Freshly obtained rat red blood cells (rRBC) from the Animal Handling Unit of Biomedical Research Center (Singapore) was used to test the hemolytic activity of the polymers and Gemini-surfactants. The rRBC was diluted to 4% v/v with phosphate-buffered saline (PBS) and added to an equal volume of 0.2% v/v Triton-X solution. A microplate reader was used to measure the optical density (O.D.) reading to make sure the value is between 0.5 and 0.6. An equal volume of different polymer or Gemini-surfactant concentrations was added to the diluted blood and incubated for 1 hour at 37° C. The samples were centrifuged at 1000 g at 4° C. for 5 minutes and 100 μL of the supernatant was collected and transferred to a 96-well tissue culture plate. There were 4 replicates for each concentration. Haemoglobin release was measured using the microplate reader at 576 nm. rRBCs treated with PBS were used as the […] control, while those treated with 0.2% v/v Triton-X was used as the […] control.
Percentage of hemolysis was calculated as follows: Hemolysis (%)═[(O.D.576 nm of the treated sample−O.D.576 nm of negative control)/(O.D.576 nm of positive control−O.D.576 nm of negative control)]×100%
HC50 was taken as the polymer concentration at which the polymer causes 50% hemolysis.

[2] = tested on: P. aeruginosa (ATCC No. 9027); assay: MIC, broth microdilution; format: cell-based, Pseudomonas aeruginosa; details: Gemini-surfactant series S; 18 hours, 37° C.
Experimental: (§1) Bacterial and fungal samples were inoculated according to ATCC's requirement. Briefly, bacteria and fungi were grown in Mueller Hinton Broth (MHB) at 37° C. and room temperature, respectively overnight to allow the microbes to enter the log growth phase with constant 100 rpm shaking. Minimum inhibitory concentration (MIC) of the polymers was determined using the broth microdilution method. 100 μL of 20% v/v water-containing broth with various polymer or Gemini-surfactant concentrations was first added into each well of a 96-well tissue culture plate. The inoculated overnight microbe solution was first diluted to an optical density (O.D.) reading of 0.07 using a microplate reader (TECAN, Switzerland). This will correspond to 3×10^8 CFU/mL based on the McFarland 1 standard solution (CFU=colony forming units). The microbe solution was further diluted 1000 times to achieve a final 3×10^5 CFU/mL. To each well, an equal volume of diluted microbes solution was added and incubated at 37° C. for 18 hours for bacteria samples and at room temperature for 42 hours for fungi samples. There were 6 replicates for each concentration tested, with negative control being microbes added into broth containing 20% v/v deionized water. MIC was taken as the lowest concentration at which there was no observable microbe growth when measured by the microplate reader.

[3] = tested on: S. aureus (ATCC No. 6538); assay: MIC, broth microdilution; format: cell-based, Staphylococcus aureus; details: Gemini-surfactant series S; 18 hours, 37° C.
Experimental: as §1

E. coli (ATCC No. 25922) = assay: MIC, broth microdilution; format: cell-based, Escherichia coli; details: Gemini-surfactant series S; 18 hours, 37° C.
Experimental: as §1

[4] = tested on: C. albicans (ATCC No 10231); assay: MIC, broth microdilution; format: cell-based, Candida albicans; details: Gemini-surfactant series S; 42 hours, room temperature
Experimental: as §1

Compound | MIC PA [2] | MIC SA [3] | MIC EC (E. coli (ATCC No. 25922)) | MIC CA [4] | Hemolysis, HC50 [1]
CCCCCCCC[N+](C)(C)Cc1ccc(C(=O)NCCNC(=O)c2ccc(C[N+](C)(C)CCCCCCCC)cc2)cc1.[Cl-].[Cl-] [S-1f] | >500 ppm | 31 ppm | 250 ppm | 125 ppm | >2000 ppm
CCCCCCCCCCCC[N+](C)(C)Cc1ccc(C(=O)NCCCCCCNC(=O)c2ccc(C[N+](C)(C)CCCCCCCCCCCC)cc2)cc1.[Cl-].[Cl-] [S-3h] | 16 ppm | 4 ppm | 16 ppm | 2 ppm | 125-250 ppm
CCCCCCCC[N+](C)(C)Cc1ccc(C(=O)NCc2cccc(CNC(=O)c3ccc(C[N+](C)(C)CCCCCCCC)cc3)c2)cc1.[Cl-].[Cl-] [S-4f] | 250 ppm | 2 ppm | 8 ppm | 125 ppm | 250-500 ppm
C=CC[N+](C)(C)Cc1ccc(C(=O)NCCOCCOCCNC(=O)c2ccc(C[N+](C)(C)CC=C)cc2)cc1.[Cl-].[Cl-] [S-5a] | >500 ppm | >500 ppm | >500 ppm | >500 ppm | >2000 ppm
C=C(C)C(=O)OCC[N+](C)(C)Cc1ccc(C(=O)NCCOCCOCCNC(=O)c2ccc(C[N+](C)(C)CCOC(=O)C(=C)C)cc2)cc1.[Cl-].[Cl-] [S-5b] | >500 ppm | >500 ppm | >500 ppm | >500 ppm | >2000 ppm
CCCC[N+](C)(C)Cc1ccc(C(=O)NCCOCCOCCNC(=O)c2ccc(C[N+](C)(C)CCCC)cc2)cc1.[Cl-].[Cl-] [S-5e] | >500 ppm | >500 ppm | >500 ppm | >500 ppm | >2000 ppm
CCCCCCCC[N+](C)(C)Cc1ccc(C(=O)NCCOCCOCCNC(=O)c2ccc(C[N+](C)(C)CCCCCCCC)cc2)cc1.[Cl-].[Cl-] [S-5f] | >500 ppm | 31 ppm | 250 ppm | 125 ppm | >2000 ppm
CCCCCCCCCC[N+](C)(C)Cc1ccc(C(=O)NCCCOCCOCCOCCCNC(=O)c2ccc(C[N+](C)(C)CCCCCCCCCC)cc2)cc1.[Cl-].[Cl-] [S-6g] | 63 ppm | 2 ppm | 4 ppm | 4 ppm | 250-500 ppm
CCCCCCCCCCCC[N+](C)(C)Cc1ccc(C(=O)NCCCOCCOCCOCCCNC(=O)c2ccc(C[N+](C)(C)CCCCCCCCCCCC)cc2)cc1.[Cl-].[Cl-] [S-6h] | 8 ppm | 1 ppm | 2 ppm | 4 ppm | 31-63 ppm
CCCCCCCCCC[N+](C)(C)Cc1ccc(C(=O)OCc2ccc(COC(=O)c3ccc(C[N+](C)(C)CCCCCCCCCC)cc3)cc2)cc1.[Cl-].[Cl-] [S-12g] | 8 ppm | 1 ppm | 2 ppm | 2 ppm | 125-250 ppm

Further lines, with some results ahead:

MIC PA [2] | MIC SA [3] | MIC EC (E. coli (ATCC No. 25922)) | MIC CA [4] | Compound | Hemolysis, HC50 [1]
16 ppm | 1 ppm | 2 ppm | 2 ppm | CCCCCCCCCCCC[N+](C)(C)Cc1ccc(C(=O)NCCNC(=O)c2ccc(C[N+](C)(C)CCCCCCCCCCCC)cc2)cc1.[Cl-].[Cl-] [S-1g] | 125-250 ppm
31 ppm | 16 ppm | 8 ppm | 2 ppm | CCCCCCCCCCCC[N+](C)(C)Cc1ccc(C(=O)NCCNC(=O)c2ccc(C[N+](C)(C)CCCCCCCCCCCC)cc2)cc1.[Cl-].[Cl-] [S-1h] | 125-250 ppm
500 ppm | 4 ppm | 16 ppm | 8 ppm | CCCCCCCC[N+](C)(C)Cc1ccc(C(=O)NCCCCCCNC(=O)c2ccc(C[N+](C)(C)CCCCCCCC)cc2)cc1.[Cl-].[Cl-] [S-3f] | 500-1000 ppm
8 ppm | 1 ppm | 1 ppm | 1 ppm | CCCCCCCCCC[N+](C)(C)Cc1ccc(C(=O)NCc2cccc(CNC(=O)c3ccc(C[N+](C)(C)CCCCCCCCCC)cc3)c2)cc1.[Cl-].[Cl-] [S-4g] | 63-125 ppm
31 ppm | 8 ppm | 8 ppm | 2 ppm | CCCCCCCCCCCC[N+](C)(C)Cc1ccc(C(=O)NCc2cccc(CNC(=O)c3ccc(C[N+](C)(C)CCCCCCCCCCCC)cc3)c2)cc1.[Cl-].[Cl-] [S-4h] | 63-125 ppm
>500 ppm | >500 ppm | >500 ppm | >500 ppm | C[N+](C)(Cc1ccc(C(=O)NCCOCCOCCNC(=O)c2ccc(C[N+](C)(C)C3CCCCC3)cc2)cc1)C1CCCCC1.[Cl-].[Cl-] [S-5c] | >2000 ppm
>500 ppm | >500 ppm | >500 ppm | >500 ppm | C[N+](C)(Cc1ccccc1)Cc1ccc(C(=O)NCCOCCOCCNC(=O)c2ccc(C[N+](C)(C)Cc3ccccc3)cc2)cc1.[Cl-].[Cl-] [S-5d] | >2000 ppm
63 ppm | 2 ppm | 4 ppm | 2 ppm | CCCCCCCCCC[N+](C)(C)Cc1ccc(C(=O)NCCOCCOCCNC(=O)c2ccc(C[N+](C)(C)CCCCCCCCCC)cc2)cc1.[Cl-].[Cl-] [S-5g] | 125-250 ppm
16 ppm | 2 ppm | 4 ppm | 1 ppm | CCCCCCCCCCCC[N+](C)(C)Cc1ccc(C(=O)NCCOCCOCCNC(=O)c2ccc(C[N+](C)(C)CCCCCCCCCCCC)cc2)cc1.[Cl-].[Cl-] [S-5h] | 16-31 ppm
>500 ppm | 16 ppm | 125 ppm | 16 ppm | CCCCCCCC[N+](C)(C)Cc1ccc(C(=O)NCCCOCCOCCOCCCNC(=O)c2ccc(C[N+](C)(C)CCCCCCCC)cc2)cc1.[Cl-].[Cl-] [S-6f] | >2000 ppm
8 ppm | 1 ppm | 1 ppm | 1 ppm | CCCCCCCCCC[N+](C)(C)Cc1ccc(C(=O)OCCCOC(=O)c2ccc(C[N+](C)(C)CCCCCCCCCC)cc2)cc1.[Cl-].[Cl-] [S-7g] | 63-125 ppm
8 ppm | 1 ppm | 2 ppm | 1 ppm | CCCCCCCCCC[N+](C)(C)Cc1ccc(C(=O)OCCCCCCOC(=O)c2ccc(C[N+](C)(C)CCCCCCCCCC)cc2)cc1.[Cl-].[Cl-] [S-9g] | 125-250 ppm
500 ppm | 16 ppm | 500 ppm | 16 ppm | CCCCCCCCCC[N+](C)(C)Cc1ccc(C(=O)OCCCCCCCCCCCCOC(=O)c2ccc(C[N+](C)(C)CCCCCCCCCC)cc2)cc1.[Cl-].[Cl-] [S-10g] | 63-125 ppm
4 ppm | 1 ppm | 1 ppm | 1 ppm | CCCCCCCCCC[N+](C)(C)Cc1ccc(C(=O)NCCCCCCOC(=O)c2ccc(C[N+](C)(C)CCCCCCCCCC)cc2)cc1.[Cl-].[Cl-] [S-13g] | 63-125 ppm
